Results on one molecule are retold here after US11267826B2, “Penicillin-binding protein inhibitors” (priority 2017, dated 2022).

Assay [1] has as its target T1, E. coli PBP3 (Escherichia coli, UniProt P0AD68).
T1 construct: 100 μg's of total membrane protein extracts containing PBPs; endogenous in cells; host or cells: Escherichia coli K12, membrane protein fraction
The experiment in a line: Bocillin FL competition binding assay, PBP3. Also on record: species or system Escherichia coli K12. The settings on record: 15 min pre-incubation. Put shortly: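 E. coli K12 membrane extracts (100 µg protein) pre-incubated 15 min with compound (0.005–2,480 µg/mL) in pH 7 phosphate/350 mM NaCl, then labelled with Bocillin FL 30 min at 35°C; SDS-PAGE fluorescence (ex 450/em 520 nm), μg/mL reported. PBP1a/1b unresolved, reported combined.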

In assay [2] the test system is E. coli DH5a harboring IMP-18. The experiment in a line: Broth microdilution MIC, engineered E. coli expressing IMP-18. The settings on record: Escherichia coli, read-out: MIC, β-lactamase IMP. The format is cell-based. How it is done:
(§1) To determine the ability of test compounds to potentiate the inhibition of the growth of bacterial strains, classic cell based broth microdilution MIC assays were employed. MIC assays are performed according to CLSI methods except where otherwise noted (CLSI, 2011 and CLSI, 2009). The reference strain S. aureus ATCC 29213 and the hyper-permeable E. coli 901C were used to determine the ability of the PBP compounds to inhibit bacterial growth. Briefly, cryo-preserved bacterial cultures of clinical strains are streaked for isolation on appropriate agar medium, in this case Mueller Hinton II agar. Following incubation to allow formation of colonies these plates are sealed with parafilm and stored refrigerated for up to two weeks. For preparation of assay inocula and to ensure low variability, at least 5 colonies are picked from the agar plates with an inoculating loop and aseptically transferred to a culture tube containing 3 mL of Mueller-Hinton Broth (supplemented with divalent cations to required levels based on Manufacturers' certification). The broth culture is grown for 3-5 hours at 37° C. with shaking at 200 rpm. Meanwhile, 2-fold serial dilutions of test compounds are conducted in a 96 well plate with a final volume of 75 μL per well at 2-fold the final desired concentration. After the dilution plates are set up the growing cultures are then diluted in a cuvette containing MH II broth and the optical density is measured at 600 nm. Inocula are diluted such that 75 μL of this culture in Mueller-Hinton Broth results in a starting bacterial concentration of 5×10^5 CFU/mL when added to the dilution plates. The plates are incubated 16-20 hours at 37° C. The MIC is read visually as the lowest concentration well with no bacterial growth.
(§2) To determine if test compounds were affected by various known β-lactamases, the inhibition of the growth of engineered strains of Escherichia coli harboring select single β-lactamases were tested. […]
A general note: In broth dilution the organism is exposed to a series of concentrations in liquid medium.

Assay [3] concerns engineered strains of Escherichia coli harboring select single β-lactamases. The experiment in a line: MIC across the panel of engineered E. coli strains harboring select single β-lactamases. Format: cell-based. The settings on record: strains expressing β-lactamases compared with control strain, result in words. On the procedure: To determine if test compounds were affected by various known β-lactamases, the inhibition of the growth of engineered strains of Escherichia coli harboring select single β-lactamases were tested. These strains were constructed by cloning the gene encoding the particular β-lactamase into the NdeI and BamHI restriction endonuclease sites of plasmid pLBII, placing the gene(s) under the control of the Lac promoter.

The target of assay [4] is T2, E. coli K12 PBP1b (Escherichia coli, UniProt P02919).
T2 construct: endogenous in cells; host or cells: Escherichia coli K12, membrane protein fraction
T2 sequence (P02919 whole entry): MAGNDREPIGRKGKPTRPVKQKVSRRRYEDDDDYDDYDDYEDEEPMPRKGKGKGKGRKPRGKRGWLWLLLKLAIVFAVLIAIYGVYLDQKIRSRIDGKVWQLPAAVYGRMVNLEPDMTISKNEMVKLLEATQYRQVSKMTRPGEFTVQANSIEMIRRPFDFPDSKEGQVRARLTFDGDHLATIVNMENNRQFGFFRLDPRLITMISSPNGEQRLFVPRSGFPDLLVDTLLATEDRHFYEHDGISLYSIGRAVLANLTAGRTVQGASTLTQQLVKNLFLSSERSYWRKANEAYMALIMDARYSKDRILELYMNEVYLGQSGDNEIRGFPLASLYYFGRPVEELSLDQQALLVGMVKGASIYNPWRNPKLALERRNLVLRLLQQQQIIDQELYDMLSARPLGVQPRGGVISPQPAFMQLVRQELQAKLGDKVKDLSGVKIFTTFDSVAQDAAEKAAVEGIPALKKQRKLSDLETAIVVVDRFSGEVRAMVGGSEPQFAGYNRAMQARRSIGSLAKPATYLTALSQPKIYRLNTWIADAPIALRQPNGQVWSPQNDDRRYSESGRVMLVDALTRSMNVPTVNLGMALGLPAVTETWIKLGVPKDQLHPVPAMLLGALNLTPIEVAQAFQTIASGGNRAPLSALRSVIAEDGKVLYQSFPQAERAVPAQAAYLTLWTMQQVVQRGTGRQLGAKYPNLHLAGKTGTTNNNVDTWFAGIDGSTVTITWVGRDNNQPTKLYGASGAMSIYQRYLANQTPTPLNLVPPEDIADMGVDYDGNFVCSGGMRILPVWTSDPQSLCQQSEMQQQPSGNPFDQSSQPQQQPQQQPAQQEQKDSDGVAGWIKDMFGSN
As to the kind of experiment: Competition binding assay using Bodipy-FL boronic acid probe (Example 125). The settings on record: Bodipy-FL boronic acid probe (Example 125) 30 μM, 10 minutes pre-incubation, 10 minutes reaction. On the procedure: Penicillin binding proteins were isolated from Escherichia coli K12 by growth of Escherichia coli K12 from a single colony in 4 L of Luria-Bertani (LB) broth at 35° C. and 250 rpm to an OD600 nm of 0.5. The cells were harvested by centrifugation at 7,000×g for 10 min. at 4° C. Cells were resuspended and washed in 50 mM potassium phosphate pH 7.5. The cells were re-suspended in sonication buffer [50 mM Tris-HCl pH 7.5, 1 mM MgCl2, 1 mM beta-mercaptoethanol, and 5 μg/mL DNAse I] and sonicated by 4 passes of 30 seconds at 45 W on ice. The sample was clarified by centrifugation at 3,000×g to remove cell debris and unbroken cells and supernatant containing the membrane proteins was retained. The membrane proteins including the PBPs were further purified from soluble constituents by an ultracentrifugation step at 100,000×g for 30 min. at 4° C. The membrane proteins are washed twice with 10 mM sodium phosphate pH 7, resuspended in a volume of 5 mL, quantitated by BCA assay, adjusted to […] and frozen at −80° C. until use.
The adapted Bocillin FL competition binding method described herein incorporates a 15 min. pre-incubation of test compound with isolated PBPs to attempt to balance the difference in mechanism of inhibition between beta-lactams (largely irreversible covalent bond to active site Serine) and the boron-containing PBP inhibitor test compounds (reversible covalent bond to active site Serine). Briefly, 50 μL reactions consisted of 100 μg's of total membrane protein extracts containing PBPs incubated with a dilution series of test compound ranging from 0.005 μg/mL to 2,480 μg/mL in 10 mM sodium phosphate pH7 containing 350 mM NaCl. Thirty minute reactions at 35° C. were initiated by addition of […] Bocillin FL, quenched by addition of SDS-PAGE loading buffer containing sodium dodecyl sulfate (SDS) and heated for 15 minutes at 95° C. to denature proteins in preparation for SDS-polyacrylamide gel electrophoresis. The Bocillin FL labeled PBPs are then separated by SDS-PAGE in Novex NuPage 10% Bis-Tris pre-cast gels (Invitrogen). The SDS-PAGE gel, post-electrophoresis, is then washed in water to remove excess SDS for 10 minutes at room temperature and placed on the scanning bed of a GE Healthcare/Amersham Biosciences Storm 860 fluorescence scanner. The excitation wavelength is in the blue spectrum at 450 nm and the emission at 520 nm is captured by the instrument. Effective PBP inhibitors are detected by a reduction in Bocillin FL labeling of the particular PBP over the dose range of test compound in a dose-responsive manner. High molecular weight PBP 1a/1b are not resolved by these gels, thus we report HMW PBP binding results in μg/mL for PBPs 1a/1b combined as well as for PBP2 and PBP3.
To determine the ability of boronic acid-based test PBP inhibitors to bind Penicillin Binding Proteins (PBPs), a competition binding assay using a Bodipy-FL-labeled boronic acid PBP inhibitor (Example 125) was adapted from the classical method used to assess PBP potency of beta-lactams using Bocillin-FL (fluorescently-labeled penicillin V). The method is identical to that described in Example I for the Bocillin-FL competition binding assay with the following exceptions, the Bodipy-FL boronic acid probe (Example 125) is used at a final concentration of 30 μM, pre-incubation time of test compound with PBP enzymes is 10 minutes and reaction time is set for 10 minutes and reactions are prepared for SDS-PAGE analysis by simply adding SDS-containing loading buffer. Representative results are shown in Table 5, where A represents a potency of >1000 μg/mL, B represents a potency between 64 and 1000 μg/mL inclusive, and C represents a potency of <64 μg/mL. NT=Not Tested.

The test system of assay [5] is E. coli DH5a harboring CTX-M15. The experiment in a line: Broth microdilution MIC, engineered E. coli expressing CTX-M15. Format: cell-based. The settings on record: Escherichia coli, read-out: MIC, β-lactamase CTXM. How it is done: as §1, §2

T1 sequence (P0AD68 1-577): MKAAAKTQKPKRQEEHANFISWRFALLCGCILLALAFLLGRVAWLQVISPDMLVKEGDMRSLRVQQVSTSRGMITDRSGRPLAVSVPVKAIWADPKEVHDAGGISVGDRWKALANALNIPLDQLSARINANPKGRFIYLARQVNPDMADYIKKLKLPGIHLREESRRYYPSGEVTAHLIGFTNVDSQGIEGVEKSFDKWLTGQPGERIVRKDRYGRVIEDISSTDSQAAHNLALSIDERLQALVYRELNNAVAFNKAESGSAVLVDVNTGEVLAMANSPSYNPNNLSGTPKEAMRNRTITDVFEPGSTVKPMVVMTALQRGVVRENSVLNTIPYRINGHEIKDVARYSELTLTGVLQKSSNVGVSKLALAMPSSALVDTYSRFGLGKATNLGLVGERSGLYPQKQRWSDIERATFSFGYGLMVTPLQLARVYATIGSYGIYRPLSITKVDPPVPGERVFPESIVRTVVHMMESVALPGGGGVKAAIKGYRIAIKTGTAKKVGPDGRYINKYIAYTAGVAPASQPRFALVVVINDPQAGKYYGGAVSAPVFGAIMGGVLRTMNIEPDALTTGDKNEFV

Turning to `Nc1nc(/C(=N/O)C(=O)N[C@H]2Cc3cccc(C(=O)O)c3OB2O)cs1` [Example 6, (R,Z)-3-(2-(2-aminothiazol-4-yl)-2-(hydroxyimino)acetamido)-2-hydroxy-3,4-dihydro-2H-benzo[e][1,2]oxaborinine-8-carboxylic Acid], the “E. coli PBP3 Potency” value in assay [1] is “B (B represents a potency between 64 and 1000 μg/mL inclusive)”. The MIC in assay [2] and in assay [5] was 16 µg/mL in each case. Besides, in assay [3], the “Effect of expressed β-lactamase on MIC” value was “the same MIC values in strains regardless of the β-lactamase expressed”. In assay [4], the “E. coli K12 PBP1b Potency” value is on record as “C (C represents a potency of <64 μg/mL)”.

The MIC is the smallest concentration in the dilution series that meets the test's criterion for growth inhibition.
